Reference: patent US10351871B2, “Desaturases and methods of using them for synthesis of polyunsaturated fatty acids” (Washington State University, priority 1998, dated 2019)

Tests used:
[1] = biological target: T1, C. elegans Δ^6-desaturase (FAT-3) (Caenorhabditis elegans, UniProt Q23221); assay: C. elegans FAT-3 expressed in yeast (pMK195, ADH promoter), substrate desaturation; type: cell-based; settings: yeast expressing fat-3 from pMK195
T1 construct: Codons for amino acid residues 38-67 of W08D2.4 were not present in the cDNA; expressed in transfected cells; host or cells: yeast (Saccharomyces cerevisiae), vector pMK195, constitutive ADH promoter
T1 sequence (Q23221 1-443): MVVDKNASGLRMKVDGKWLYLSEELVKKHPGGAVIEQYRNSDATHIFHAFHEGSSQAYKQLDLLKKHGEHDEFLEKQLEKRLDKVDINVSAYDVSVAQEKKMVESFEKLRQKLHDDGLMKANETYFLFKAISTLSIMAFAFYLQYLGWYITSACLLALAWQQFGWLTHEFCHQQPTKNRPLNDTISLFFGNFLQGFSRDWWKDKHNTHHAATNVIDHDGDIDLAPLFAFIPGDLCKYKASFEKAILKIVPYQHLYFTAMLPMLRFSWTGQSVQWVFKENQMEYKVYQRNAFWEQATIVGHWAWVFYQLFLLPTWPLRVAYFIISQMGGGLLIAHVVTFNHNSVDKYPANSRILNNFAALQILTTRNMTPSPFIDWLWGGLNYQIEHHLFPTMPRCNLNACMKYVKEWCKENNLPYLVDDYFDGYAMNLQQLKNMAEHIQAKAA
From the text: The fat-3 gene was expressed in the yeast expression vector pMK195 containing the constitutive ADH promoter.

[2] = biological target: T2, C. elegans Δ^5-desaturase (FAT-4) (Caenorhabditis elegans, UniProt G5EG11); assay: C. elegans FAT-4 (pYES2, fat-4) expressed in yeast fed fatty acid substrates, GC analysis; type: cell-based; settings: for activity of FAT-4 on substrate (in words): yeast expressing FAT-4, substrate fed; for substrate converted to desaturation product: yeast expressing FAT-4, 2% galactose, 0.2 mM fatty acid, 16 hours, 18:1 is endogenous; for amount desaturated relative to conventional substrate 20:3Δ^8,11,14: yeast expressing the C. elegans Δ^5-desaturase gene
T2 construct: The resulting peptide length was 447 amino acids instead of the previously predicted 454 amino acids; expressed in transfected cells; host or cells: Saccharomyces cerevisiae INVSc1, plasmid pYFAT4 (pYES2, GAL1 promoter)
T2 sequence (G5EG11 1-447): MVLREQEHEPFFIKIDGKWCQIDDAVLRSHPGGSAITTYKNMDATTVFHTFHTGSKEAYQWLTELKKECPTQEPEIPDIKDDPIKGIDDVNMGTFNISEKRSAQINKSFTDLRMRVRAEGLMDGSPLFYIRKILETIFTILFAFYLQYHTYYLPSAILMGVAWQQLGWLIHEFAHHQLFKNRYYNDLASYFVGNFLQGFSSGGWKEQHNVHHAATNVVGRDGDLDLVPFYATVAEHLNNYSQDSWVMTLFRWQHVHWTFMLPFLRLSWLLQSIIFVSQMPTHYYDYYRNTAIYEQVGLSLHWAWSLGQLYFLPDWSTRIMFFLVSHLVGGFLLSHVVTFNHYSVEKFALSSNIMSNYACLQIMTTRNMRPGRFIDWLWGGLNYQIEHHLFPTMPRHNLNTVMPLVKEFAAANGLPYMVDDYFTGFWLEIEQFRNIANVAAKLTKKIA
Procedure: To express the C. elegans Δ^5-desaturase, the fat-4 cDNA amplification product (see Example 3) was digested with HindIII and BamH1 and ligated to the yeast expression vector pYES2 (Invitrogen) cut with HindIII and BamH1. The resulting plasmid was named pYFAT4.
For the C. elegans Δ^5 gene, the constructs were transformed into Saccharomyces cerevisiae strain INVSc1 using the S.c. EasyComp transformation kit (Invitrogen). For experiments with the FAT-4 peptide, transformed yeast were grown overnight in uracil-deficient media containing 2% galactose, 0.2 mM fatty acid, and 1% NP-40.
(§1) Extraction of lipids and preparation of fatty acid methyl esters was carried out by standard methods (Miguel and Browse, J. Biol. Chem. 267:1502-1509, 1992). Gas chromatography of the methyl esters was conducted by established methods (Spychalla et al., Proc. Natl. Acad. Sci. USA 94:1142-1147, 1997). Fatty acid 4,4-Dimethyloxazoline (DMOX) derivatives of yeast lipid extracts were prepared by standard methods (Fay and Richli, J. Chromatogr. 541:89-98, 1991). GC-mass spectrometry was conducted on a Hewlett-Packard 6890 series GC-MS fitted with a 30 m×[…] HPSMS column, operating at an ionization voltage of 70 eV with a scan range of 50-550 Da. Fatty acids and their derivatives were identified where possible by comparison with authentic standards (NuCheck Prep).
To determine the enzymatic activity of the FAT-4 desaturase-like protein, the protein was expressed in Saccharomyces cerevisiae supplemented with polyunsaturated fatty acid substrates that are not normally present in this yeast. The FAT-4 protein was expressed in the yeast expression vector pYES2 from the GAL1 promoter by growing the cells in the presence of galactose and various fatty acids. After 16 hours of growth, the cells were analyzed for total fatty acid composition by gas chromatography (GC).

[3] = biological target: T3, Euglena Δ^8-desaturase (EFD1) (Euglena gracilis, UniProt Q9SWQ9); type: cell-based; settings: for desaturated share of the total incorporated 20-carbon fatty acid: S. cerevisiae with pYES2-541, 2% galactose, 0.2 mM fatty acid soap, overnight at 28° C.; for substrate preference over 20:1: EFD1 expressed in yeast; for desaturation of Δ^5 and Δ^6 substrates by EFD1 (in words): S. cerevisiae with pYES2-541, medium supplemented with the fatty acid
T3 construct: The resulting yeast expression construct containing the open reading frame under the control of a galactose-inducible promoter was designated pYES2-541; expressed in transfected cells; host or cells: Saccharomyces cerevisiae INVSc1, plasmid pYES2-541 (GAL1 promoter)
From the text: For E. gracilis, the cloned Δ^8 gene was transferred to the yeast expression vector pYES2 (Invitrogen, Carlsbad, Calif.) by standard cloning techniques (Ausubel, Current Protocols In Molecular Biology, 1988) using enzymes obtained from New England Biolabs, Beverly, Mass. The resulting yeast expression construct containing the open reading frame under the control of a galactose-inducible promoter was designated pYES2-541.
Saccharomyces cerevisiae strain INVSc1 (Invitrogen) was transformed with pYES2-541 and cultured using standard methods (Ausubel, Current Protocols In Molecular Biology, 1988). Liquid medium containing 2% galactose was supplemented with fatty acid soaps (NuCheck Prep, Elysian Minn.) at a final concentration of 0.2 mM. Tergitol (1%, NP40) was added to the yeast cultures to enhance fatty acid uptake (Stukey et al., J. Biol. Chem. 264:16537-16544, 1989), except for cultures containing 20:1, where 5% DMSO was substituted. Yeast were incubated overnight at 28° C., harvested by centrifugation, washed once with 1% Tergitol, once with 0.5% Tergitol, and finally once with distilled water.
as §1
To confirm the activity of the enzyme, the EFD1 cDNA was transferred from pJW541 to yeast expression vector pYES2 under the control of a galactose-inducible promoter. The resulting construct, pYES2-541, was introduced into S. cerevisiae. […] Accordingly, yeast cultures were supplemented with various fatty acid soaps, using a yeast strain containing the empty vector as control, and analyzed the fatty acids of the cultures by methyl-ester derivatization and gas chromatography.

Δ^5- and Δ^8-desaturases = assay: Yeast cell transformed with both Δ^5- and Δ^8-desaturase genes (pYFAT4 + pYX232-541) fed fatty acid substrates, GC; type: cell-based, Saccharomyces cerevisiae; settings: for One added desaturation / Unconverted substrate: overnight culture at 28° C.; for Doubly desaturated product: products 20:5 (5, 8, 11, 14, 17), 20:4 (5, 8, 11, 14), 20:3 (5, 8, 11)
From the text: The cDNA portion of pJW541 (Wallis and Browse, Arch. Biochem. Biophys. 365:307-316, 1999) containing the Euglena Δ^8-desaturase was excised from that plasmid with the restriction enzymes EcoRI and SpeI. The purified DNA fragment representing the insert was ligated into the yeast expression vector pYX232 (R&D Systems, Inc.) that had been prepared by digestion with EcoRI and NheI, to give compatible sticky ends. (Plasmid pYX232 carries the marker conferring yeast prototrophy for tryptophan (TRP1 mutation), and uses the triose phosphate isomerase (TPI) promoter for constitutive expression of the inserted DNA.) The resulting plasmid, pYX232-541, was introduced into the Saccharomyces cerevisiae strain already harboring the Δ^5-desaturase (pYFAT4; Watts and Browse, Arch. Biochem. Biophys. 362:175-182, 1999) plasmid that confers yeast prototrophy for uracil using a lithium acetate transformation procedure (Invitrogen). Transformants were selected simultaneously for uracil and tryptophan prototrophy. Selected colonies arising after the transformation were inoculated into yeast minimal medium that also lacked both uracil and tryptophan.
For analysis of activity, separate cultures were supplemented with one of three fatty acid substrates provided as sodium salts as described (Wallis and Browse, Arch. Biochem. Biophys. 365:307-316, 1999). After overnight culture at 28° C., the cultures were harvested by centrifugation and washed. Fatty acid methyl esters were prepared using the standard methods described in Miguel and Browse J. Biol. Chem. 267:1502-1509, 1992.

[4] = biological target: T4, Δ^5-desaturase activity in microsomal extracts of mammalian liver (Rattus norvegicus, UniProt Q920R3); settings: labeled substrate; cited from earlier work
T4 construct: the rates of desaturation in microsomal extracts of mammalian liver; host or cells: microsomal extracts of mammalian liver

Δ^5-desaturase = biological target: T5, Δ^5-desaturase (Caenorhabditis elegans, UniProt G5EG11); assay: Arabidopsis plants doubly transformed with both desaturases, seed fatty acid methyl ester analysis; type: in vivo; settings: seed from plants doubly transformed with both desaturases
T5 construct: expressed in transfected cells; host or cells: Arabidopsis plants (seed) doubly transformed with Δ8 and Δ5 constructs
T5 sequence (G5EG11 1-447): T2 sequence (G5EG11 1-447)
From the text: For example, the expression of the Δ^5- and Δ^8-desaturases in a plant, such as Arabidopsis, can be achieved by constructing a plant transformation vector to introduce the cDNA of each desaturase into the plant. The vector can contain a tissue specific promoter so that the desaturase protein will be expressed during seed development. Examples of seed specific promoters include that for phaseolin (van der Geest and Hall, Plant Mol. Biol. 32:579-88, 1996) or the promoter for napin (Stalberg et al., Plant Mol. Biol. 23: 671-83, 1993). Other seed-specific promoters that can be used are those located on the genomic BAC clone T24A18 (LOCUS ATT24A18. (1999) 45980 bp Arabidopsis thaliana DNA chromosome 4, ACCESSION # AL035680, NID g4490701) of the Arabidopsis genome. […] Transformation of Arabidopsis is readily achieved using the Agrobacterium-mediated vacuum infiltration process (Katavic et al., Mol. Gen. Genet. 245:363-70, 1994) or the floral dip modification of it (Clough and Bent, Plant J. 16:735-43, 1998), although several other methods are also commonly used. […] Since the Δ^8 and Δ^5 constructs use different selectable markers the double transformants are readily isolated. […] The seeds of transformed plants are analyzed by isolation of fatty acid methyl esters followed by gas chromatography to determine the fatty acid composition.

T3 sequence (Q9SWQ9 other isoform, or with tags, fused parts or gaps with the stated changes): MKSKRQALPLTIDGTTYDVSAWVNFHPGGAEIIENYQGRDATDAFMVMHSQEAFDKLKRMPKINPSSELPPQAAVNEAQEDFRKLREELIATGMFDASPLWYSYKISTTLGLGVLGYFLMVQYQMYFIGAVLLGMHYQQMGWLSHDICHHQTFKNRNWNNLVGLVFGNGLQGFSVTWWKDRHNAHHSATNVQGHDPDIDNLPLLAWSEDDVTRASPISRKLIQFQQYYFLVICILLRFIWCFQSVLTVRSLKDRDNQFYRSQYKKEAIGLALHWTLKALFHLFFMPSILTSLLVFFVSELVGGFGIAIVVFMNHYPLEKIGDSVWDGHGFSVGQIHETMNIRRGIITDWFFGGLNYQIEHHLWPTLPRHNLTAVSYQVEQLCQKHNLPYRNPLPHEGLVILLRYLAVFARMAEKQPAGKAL
T4 sequence (Q920R3 whole entry, stated change not applied): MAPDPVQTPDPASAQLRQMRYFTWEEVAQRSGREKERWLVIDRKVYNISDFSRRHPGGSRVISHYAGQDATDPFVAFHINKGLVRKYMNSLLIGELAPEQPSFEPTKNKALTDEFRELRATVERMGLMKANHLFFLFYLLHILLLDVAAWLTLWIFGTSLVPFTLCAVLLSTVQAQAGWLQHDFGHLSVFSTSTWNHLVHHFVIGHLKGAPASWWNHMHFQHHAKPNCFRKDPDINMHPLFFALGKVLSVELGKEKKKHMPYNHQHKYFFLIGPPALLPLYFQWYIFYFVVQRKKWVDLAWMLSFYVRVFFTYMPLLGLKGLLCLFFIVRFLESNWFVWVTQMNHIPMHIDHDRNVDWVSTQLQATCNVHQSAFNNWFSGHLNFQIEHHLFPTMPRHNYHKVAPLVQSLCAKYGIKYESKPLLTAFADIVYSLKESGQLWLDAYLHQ

Row | SMILES | activity of FAT-3 on substrate (in words) [1] | activity of FAT-4 on substrate (in words) [2] | desaturated share of the total incorporated 20-carbon fatty acid [3] [%] | One added desaturation (Δ^5- and Δ^8-desaturases) | Unconverted substrate (Δ^5- and Δ^8-desaturases) | Doubly desaturated product (Δ^5- and Δ^8-desaturases) | substrate converted to desaturation product [2] [%] | further results
1 | CCCCCCCCC=CCCCCCCCCCC(=O)O [20:1Δ^11] | no activity | No novel peaks were detected | 32 | 18 mass percent of incorporated 20-carbon fatty acids | 72 mass percent of incorporated 20-carbon fatty acids | 11 mass percent of incorporated 20-carbon fatty acids | – | –
2 | CCCCCC=CCC=CCCCCCCCCCC(=O)O [20:2Δ^11,14] | no activity | – | 73 | 18 mass percent of incorporated 20-carbon fatty acids | 70 mass percent of incorporated 20-carbon fatty acids | 13 mass percent of incorporated 20-carbon fatty acids | 27 | rate of conversion to 20:3Δ^5,11,14 relative to rate of conversion of labeled 20:3Δ^8,11,14 to 20:4Δ^5,8,11,14 [4]: 41%; amount desaturated relative to conventional substrate 20:3Δ^8,11,14 [2]: less than half; substrate preference over 20:1 [3]: greater than two-fold preference
3 | CCC=CCC=CCC=CCCCCCCCCCC(=O)O [20:3Δ^11,14,17] | no activity | – | 70 | 17 mass percent of incorporated 20-carbon fatty acids | 71 mass percent of incorporated 20-carbon fatty acids | 11 mass percent of incorporated 20-carbon fatty acids | 26 | amount desaturated relative to conventional substrate 20:3Δ^8,11,14 [2]: less than half; substrate preference over 20:1 [3]: greater than two-fold preference
4 | CCCCCCCCC=CCC=CCCCCCCC(=O)O [20:Δ^8,11] | – | – | – | – | – | – | – | conversion to 20:3Δ^5,8,11 in seed (Δ^5-desaturase): convert
5 | CCCCC/C=C\C/C=C\C/C=C\CCCCCCC(=O)O [di-homo-γ-linolenic acid] | no activity | – | – | – | – | – | 55 | –
6 | CCCCC/C=C\C/C=C\CCCCCCCC(=O)O [linoleic acid] | able to desaturate | no activity | – | – | – | – | – | desaturation of Δ^5 and Δ^6 substrates by EFD1 (in words) [3]: no desaturation occurred
7 | CC/C=C\C/C=C\C/C=C\CCCCCCCC(=O)O [α-linolenic acid] | capable of desaturating | – | – | – | – | – | – | desaturation of Δ^5 and Δ^6 substrates by EFD1 (in words) [3]: no desaturation occurred
8 | CCCCC/C=C\C/C=C\C/C=C\CCCCC(=O)O [γ-linolenic acid] | – | no activity | – | – | – | – | – | –
